{"source": "patent USRE39192E1", "about": "“Supplemented and unsupplemented tissue sealants, methods of their production and use” (American National Red Cross, priority 1990, dated 2006)", "test_system": "human dermal fibroblasts (HDFs)", "assay": "Cell chemotaxis assay (modified Boyden's chamber), human dermal fibroblasts", "assay_type": "cell-based", "text": "NIH/3T3 fibroblasts at passage 126 were purchased from the American Type Culture Collection, Rockville, Md. Cultures from passages 129-133 were used in the chemotaxis assays. Cultures were propagated in DMEM supplemented with 10%. Calf serum and approximately 1% antibiotic antimycotic solution. Human dermal fibroblasts (HDFs) were purchased from Clonetics, Inc. (San Diego, Calif.) at passage 2. Cultures from passages 3-5 were used in the chemotaxis assays. Cultures were cultivated in DMEM supplemented with 20% FBS (Hyclone Laboratories, Inc., Logan, Utah) and approximately 1% antibiotic antimycotic solution (Gibco, Grand Island, N.Y.).\nThe procedure used to determine cellular chemotaxis was a combination of two known methodologies. A modification of Boyden's chamber was used as follows: Millicell-PCF (Millipore, Inc., Bedford, Mass.) (12.0 μm) 12.0 mm diameter inserts were placed in individual wells of 24 well plates to create the upper and lower chemotaxis chambers. Chemotaxis results were arrived at by performing checkerboard analysis for every combination of cells and growth factors. Concentrations ranging from 0.1, 1, 10, 100 ng/ml with/without added heparin (10 U/ml) were used for FGF-1, FGF-2 (no heparin) and FGF-4 with all the cell types mentioned in the materials section. Briefly, cultures were trypsanized and placed in DMEM+0.1% Bovine Serum Albumin (BSA) (Sigma Chemical Co., St. Louis, Mo.) for approximately one hour at 37° C. in a 5% CO2 humidified chamber. Tow to 2.5×10^5 cells in 50 μl were added per insert to the upper chamber of the setup of the 24 well plates. Treatments were added as mentioned above. The assay was kept at 37° C. in a 5% CO2 humidified chamber for 4 hours. All combinations tested were performed in triplicate. At the end of 4 hours, the plates were removed from the incubator and the filters were stained following the protocol for staining included with the Millicell-PCT inserts. Briefly, the fluid surrounding the inside and outside of the Millicell-PCF inserts were removed. Three percent glutaraldehyde (Sigma Chemical Co., St. Louis, Mo.) was added to the outside and inside of the inserts for approximately 20 minutes. Following removal of the 3.0% glutaraldehyde, 0.5% Triton X-100 (E.M. Science, Cherry Hill, N.J.) was added for 5-7 minutes. On removal of the 0.5% Triton X-100, Fisher's Hematoxylin Solution Gill's Formulation (Fisher Scientific, Newark, Del.) No.1 was added for about 10 minutes. This solution was washed off in running distilled water for about 5 minutes. Using a cotton swab the upper side of the filter was swabbed to remove cells which had not migrated. Filters, were mounted lower side facing up on slides in Crystal Mount™ (Biomedia, Inc., Foster City, Calif.) solution and 10 random field were counted per slide both visually at 400× and at 200×using an Image Analyzing System to automate the enumeration of the cells on the underside of the filters.\nAs required, checkerboard analysis was carried out to determine random migration, and positive and negative chemotaxis. Growth factors were added to the upper and/or lower chambers to observe whether cells migrated towards the GF alone (chemotaxis), whether migration was random irrespective of whether the growth factor was added to the upper or lower well (chemokinesis) or whether cell migration was against the chemotactic gradient (negative chemotaxis).", "data": [{"substance": "HBGF-1: heparin binding growth factor-1, also known as ECGF and FGF-1; recombinant HBGF-1β expressed in E. coli", "values": [{"measurement": "checkerboard analysis", "value": "chemotactic"}, {"measurement": "maximal migratory response over negative control", "value": 18, "unit": "fold"}, {"measurement": "migrated cells (checkerboard analysis)", "setting": "lower 0 ng/ml, upper 0.1 ng/ml", "value": "48. +/− 1.965"}, {"measurement": "migrated cells (checkerboard analysis)", "setting": "lower 0 ng/ml, upper 1 ng/ml", "value": "1.3 +/− 0.351"}, {"measurement": "migrated cells (checkerboard analysis)", "setting": "lower 0 ng/ml, upper 10 ng/ml", "value": "4.6 +/− 2.424"}, {"measurement": "migrated cells (checkerboard analysis)", "setting": "lower 0 ng/ml, upper 100 ng/ml", "value": "2.4 +/− 2.59"}, {"measurement": "migrated cells (checkerboard analysis)", "setting": "lower 0.1 ng/ml, upper 0 ng/ml", "value": "66.46 +/− 3.304"}, {"measurement": "migrated cells (checkerboard analysis)", "setting": "lower 0.1 ng/ml, upper 0.1 ng/ml", "value": "3.5 +/− 1.550"}, {"measurement": "migrated cells (checkerboard analysis)", "setting": "lower 0.1 ng/ml, upper 1 ng/ml", "value": "22.0 +/− 6.621"}, {"measurement": "migrated cells (checkerboard analysis)", "setting": "lower 0.1 ng/ml, upper 10 ng/ml", "value": "9.7 +/− 7.758"}, {"measurement": "migrated cells (checkerboard analysis)", "setting": "lower 0.1 ng/ml, upper 100 ng/ml", "value": "11.6 +/− 8.609"}, {"measurement": "migrated cells (checkerboard analysis)", "setting": "lower 1 ng/ml, upper 0 ng/ml", "value": "90.0 +/− 5.776"}, {"measurement": "migrated cells (checkerboard analysis)", "setting": "lower 1 ng/ml, upper 0.1 ng/ml", "value": "27.7 +/− 8.10"}, {"measurement": "migrated cells (checkerboard analysis)", "setting": "lower 1 ng/ml, upper 1 ng/ml", "value": "52.6 +/− 2.775"}, {"measurement": "migrated cells (checkerboard analysis)", "setting": "lower 1 ng/ml, upper 10 ng/ml", "value": "9.7 +/− 3.553"}, {"measurement": "migrated cells (checkerboard analysis)", "setting": "lower 1 ng/ml, upper 100 ng/ml", "value": "1.83 +/− 2.2"}, {"measurement": "migrated cells (checkerboard analysis)", "setting": "lower 10 ng/ml, upper 0 ng/ml", "value": "92.4 +/− 29.307"}, {"measurement": "migrated cells (checkerboard analysis)", "setting": "lower 10 ng/ml, upper 0.1 ng/ml", "value": "55.1 +/− 7.151"}, {"measurement": "migrated cells (checkerboard analysis)", "setting": "lower 10 ng/ml, upper 1 ng/ml", "value": "44.2 +/− 11.844"}, {"measurement": "migrated cells (checkerboard analysis)", "setting": "lower 10 ng/ml, upper 10 ng/ml", "value": "16.2 +/− 4.781"}, {"measurement": "migrated cells (checkerboard analysis)", "setting": "lower 10 ng/ml, upper 100 ng/ml", "value": "21.2 +/− 6.42"}, {"measurement": "migrated cells (checkerboard analysis)", "setting": "lower 100 ng/ml, upper 0 ng/ml", "value": "65.4 +/− 22.055"}, {"measurement": "migrated cells (checkerboard analysis)", "setting": "lower 100 ng/ml, upper 0.1 ng/ml", "value": "53.7 +/− 7.3118"}, {"measurement": "migrated cells (checkerboard analysis)", "setting": "lower 100 ng/ml, upper 1 ng/ml", "value": "54.9 +/− 18.599"}, {"measurement": "migrated cells (checkerboard analysis)", "setting": "lower 100 ng/ml, upper 10 ng/ml", "value": "49.166 +/− 9.152"}, {"measurement": "migrated cells (checkerboard analysis)", "setting": "lower 100 ng/ml, upper 100 ng/ml", "value": "4.66 +/− 3.3"}]}]}
